Assay results as given in patent US9498442B2 (ALFA WASSERMANN S.P.A., priority 2010, dated 2016).
≈ marks a conversion by molar mass, not a printed value. Like-named read-outs stand apart in the source and are kept apart here.

Tests used:
[1] = Rifaximin solubility at different pH, shake flask method; type: physicochemical; conditions: for solubility: thermodynamic from solid, shake flask, 20° C.
Description: The study was conducted in accordance with accepted principles in order to meet the requirements of the Annex to European Commission Directive 92/69/EEC and the OECD Guidelines for Testing of Chemicals (EEC Method A6, OECD Method 105). […] Aliquots of the saturated solutions of rifaximin-α were adequately diluted, then analyzed by a high performance liquid chromatography (HPLC) method.

[2] = test system: enterotoxogenic Escherichia coli isolates; conditions: cited from earlier work
[3] = test system: enteric bacteria pathogens; conditions: cited from earlier work
[4] = Particle size dimension (PSD), Beckman-Coulter LS100 Q; type: physicochemical; conditions: solvent White Spirit
Description: The particle size analysis were performed using Beckman—Coulter LS100 Q particle size analyzer equipped with a micro-volume cell. The solvent used is White Spirit (WS). In Table 4 are reported the average size of the particles obtained with spray drying and milling processes.

Bulk density = type: physicochemical; conditions: 10 ml volumetric flask, three samples
[5] = Solubility over time of rifaximin preparations in phosphate buffer pH 6.8; type: physicochemical
Description: Samples taken at 5-minute intervals during the first hour and at 15-minute intervals in the remaining time, are analysed in HPLC after filtration.

[6] = Stability of rifaximin powder obtained by spray drying on storage; type: physicochemical; conditions: for Description / Total impurities / Water content (Karl Fisher) / X-Ray diffraction spectrum: 40° C. ± 2° C., RH 75 ± 5%; for X-Ray diffraction spectrum: complies with an amorphous form of Rifaximin
[7] = PK study on dogs of rifaximin prepared by spray drying; type: in vivo, dog (beagle); conditions: blood
Description: Capsules of hard gelatin containing only rifaximin were administered, and the pre- and post-dose observations, the body weight and the physical examination were evaluated.
Blood samples were collected from all animals on each day of dosing at: 0 (pre-dose), 1, 2, 4, 6, 8 and 24 hours after each dosing.

## CO[C@H]1/C=C/O[C@@]2(C)Oc3c(C)c(O)c4c(O)c(c5c(nc6cc(C)ccn65)c4c3C2=O)NC(=O)/C(C)=C\C=C\[C@H](C)[C@H](O)[C@@H](C)[C@@H](O)[C@@H](C)[C@H](OC(C)=O)[C@@H]1C [rifaximin, (2S,16Z,18E,20S,21S,22R,23R,24R,25S,26S,27S,28E)-5,6,21,23,25 pentahydroxy-27-methoxy-2,4,11,16,20,22,24,26-octamethyl-2,7-(epoxypentadeca-(1,11,13)trienimino) benzofuro (4,5-e) pyrido(1,2,-a) benzimi-dazole-1,15(2H)-dione,25-acetate]
[1]; pH variation between 5 and 7
  effect of pH variation on solubility: does not affect the solubility
[2]; contact maintained only for 8 hours
  virulence of the pathogens: not abolished
[2]; continuous contact for at least 24 hours
  concentration effective in the alteration of the virulence: 8 fold lower than MIC
[3]
  sub-inhibitory concentration at which alteration of virulence factor occurs: 32 folds lower than the MIC values

## CO[C@H]1/C=C/O[C@@]2(C)Oc3c(C)c(O)c4c(O)c(c5c(nc6cc(C)ccn65)c4c3C2=O)NC(=O)/C(C)=C\C=C\[C@H](C)[C@H](O)[C@@H](C)[C@@H](O)[C@@H](C)[C@H](OC(C)=O)[C@@H]1C [rifaximin by milling, rifaximin, reference compound]
[4]; listed as Milling Process
  Diameter Particle d10: 1.84 μm
  Diameter Particle d50: 8.17 μm
  Diameter Particle d90: 12.92 μm
Bulk density
  bulk density: 0.327 g/mL
[5]; 5 min, 500 mg in 750 ml phosphate buffer pH 6.8, 30±0.5° C., 250 rpm
  Solubility over time, Concentration: 0.0108 mg/mL (≈ 13.7 µM)
[5]; 10 min, phosphate buffer pH 6.8, 30±0.5° C.
  Solubility over time, Concentration: 0.0143 mg/mL (≈ 18.2 µM)
[5]; 15 min, phosphate buffer pH 6.8, 30±0.5° C.
  Solubility over time, Concentration: 0.0159 mg/mL (≈ 20.2 µM)
[5]; 20 min, phosphate buffer pH 6.8, 30±0.5° C.
  Solubility over time, Concentration: 0.0167 mg/mL (≈ 21.2 µM)
[5]; 25 min, phosphate buffer pH 6.8, 30±0.5° C.
  Solubility over time, Concentration: 0.0169 mg/mL (≈ 21.5 µM)
[5]; 30 min, phosphate buffer pH 6.8, 30±0.5° C.
  Solubility over time, Concentration: 0.0167 mg/mL (≈ 21.2 µM)
[5]; 35 min, phosphate buffer pH 6.8, 30±0.5° C.
  Solubility over time, Concentration: 0.0161 mg/mL (≈ 20.5 µM)
[5]; 40 min, phosphate buffer pH 6.8, 30±0.5° C.
  Solubility over time, Concentration: 0.0154 mg/mL (≈ 19.6 µM)
[5]; 45 min, phosphate buffer pH 6.8, 30±0.5° C.
  Solubility over time, Concentration: 0.0148 mg/mL (≈ 18.8 µM)
[5]; 50 min, phosphate buffer pH 6.8, 30±0.5° C.
  Solubility over time, Concentration: 0.014 mg/mL (≈ 17.8 µM)
[5]; 55 min, phosphate buffer pH 6.8, 30±0.5° C.
  Solubility over time, Concentration: 0.0135 mg/mL (≈ 17.2 µM)
[5]; 90 min, phosphate buffer pH 6.8, 30±0.5° C.
  Solubility over time, Concentration: 0.0109 mg/mL (≈ 13.9 µM)
[5]; 105 min, phosphate buffer pH 6.8, 30±0.5° C.
  Solubility over time, Concentration: 0.0098 mg/mL (≈ 12.5 µM)
[5]; 120 min, phosphate buffer pH 6.8, 30±0.5° C.
  Solubility over time, Concentration: 0.009 mg/mL (≈ 11.5 µM)
[5]; 135 min, phosphate buffer pH 6.8, 30±0.5° C.
  Solubility over time, Concentration: 0.0083 mg/mL (≈ 10.6 µM)
[5]; 150 min, phosphate buffer pH 6.8, 30±0.5° C.
  Solubility over time, Concentration: 0.0079 mg/mL (≈ 10.1 µM)
[5]; phosphate buffer, 30 °C, pH 6.8, aqueous buffer, thermodynamic from solid, 60 min, phosphate buffer pH 6.8, 30±0.5° C., read-out: Solubility over time, Concentration
  solubility at 60 min: 0.0129 mg/mL (≈ 16.4 µM)
[5]; phosphate buffer, 30 °C, pH 6.8, aqueous buffer, thermodynamic from solid, 75 min, phosphate buffer pH 6.8, 30±0.5° C., read-out: Solubility over time, Concentration
  solubility at 75 min: 0.0121 mg/mL (≈ 15.4 µM)

## CO[C@H]1/C=C/O[C@@]2(C)Oc3c(C)c(O)c4c(O)c(c5c(nc6cc(C)ccn65)c4c3C2=O)NC(=O)/C(C)=C\C=C\[C@H](C)[C@H](O)[C@@H](C)[C@@H](O)[C@@H](C)[C@H](OC(C)=O)[C@@H]1C [Example 1, rifaximin]
[6]; 1 month
  Description: Red-orange
  Total impurities: 0.54%
  Water content (Karl Fisher): 4.9%
  X-Ray diffraction spectrum: Complies with
[6]; 3 months
  Description: Red-orange
  Total impurities: 0.95%
  Water content (Karl Fisher): 5.4%
  X-Ray diffraction spectrum: Complies with
[6]; 40° C.+2, relative humidity 75%, up to three months
  stability of the obtained rifaximin powder: stable
[6]; T0, acceptance Red-orange powder
  Description: Red-orange
[6]; T0, acceptance ≦2.0%
  Total impurities: 0.51%
[6]; T0, acceptance ≦8%
  Water content (Karl Fisher): 2.2%
[6]; T0
  X-Ray diffraction spectrum: Complies with
[6]; after three months, 30° C. to 40° C., humidity degree higher than 50%
  stability of rifaximin in powder form: stable
[4]; listed as Spray Drying Process
  Diameter Particle d10: 4.56 μm
  Diameter Particle d50: 19.60 μm
  Diameter Particle d90: 62.21 μm
Bulk density; listed as rifaximin by spay drying
  bulk density: 0.257 g/mL
[5]; 10 min, phosphate buffer pH 6.8, 30±0.5° C., listed as Spray drying
  Solubility over time, Concentration: 0.0302 mg/mL (≈ 38.4 µM)
[5]; 15 min, phosphate buffer pH 6.8, 30±0.5° C., listed as Spray drying
  Solubility over time, Concentration: 0.044 mg/mL (≈ 56 µM)
[5]; 20 min, phosphate buffer pH 6.8, 30±0.5° C., listed as Spray drying
  Solubility over time, Concentration: 0.047 mg/mL (≈ 59.8 µM)
[5]; 25 min, phosphate buffer pH 6.8, 30±0.5° C., listed as Spray drying
  Solubility over time, Concentration: 0.038 mg/mL (≈ 48.4 µM)
[5]; 60 min, phosphate buffer pH 6.8, 30±0.5° C., listed as Spray drying
  Solubility over time, Concentration: 0.011 mg/mL (≈ 14 µM)
[5]; 75 min, phosphate buffer pH 6.8, 30±0.5° C., listed as Spray drying
  Solubility over time, Concentration: 0.0099 mg/mL (≈ 12.6 µM)
[5]; 90 min, phosphate buffer pH 6.8, 30±0.5° C., listed as Spray drying
  Solubility over time, Concentration: 0.0095 mg/mL (≈ 12.1 µM)
[5]; 105 min, phosphate buffer pH 6.8, 30±0.5° C., listed as Spray drying
  Solubility over time, Concentration: 0.0093 mg/mL (≈ 11.8 µM)
[5]; 120 min, phosphate buffer pH 6.8, 30±0.5° C., listed as Spray drying
  Solubility over time, Concentration: 0.0091 mg/mL (≈ 11.6 µM)
[5]; 135 min, phosphate buffer pH 6.8, 30±0.5° C., listed as Spray drying
  Solubility over time, Concentration: 0.009 mg/mL (≈ 11.5 µM)
[5]; 150 min, phosphate buffer pH 6.8, 30±0.5° C., listed as Spray drying
  Solubility over time, Concentration: 0.0088 mg/mL (≈ 11.2 µM)
[5]; phosphate buffer, 30 °C, pH 6.8, aqueous buffer, thermodynamic from solid, 5 min, 500 mg in 750 ml phosphate buffer pH 6.8, 30±0.5° C., 250 rpm, read-out: Solubility over time, Concentration
  solubility at 5 min: 0.0144 mg/mL (≈ 18.3 µM)
[5]; phosphate buffer, 30 °C, pH 6.8, aqueous buffer, thermodynamic from solid, 30 min, phosphate buffer pH 6.8, 30±0.5° C., read-out: Solubility over time, Concentration
  solubility at 30 min: 0.0287 mg/mL (≈ 36.5 µM)
[5]; phosphate buffer, 30 °C, pH 6.8, aqueous buffer, thermodynamic from solid, 35 min, phosphate buffer pH 6.8, 30±0.5° C., read-out: Solubility over time, Concentration
  solubility at 35 min: 0.0224 mg/mL (≈ 28.5 µM)
[5]; phosphate buffer, 30 °C, pH 6.8, aqueous buffer, thermodynamic from solid, 40 min, phosphate buffer pH 6.8, 30±0.5° C., read-out: Solubility over time, Concentration
  solubility at 40 min: 0.0177 mg/mL (≈ 22.5 µM)
[5]; phosphate buffer, 30 °C, pH 6.8, aqueous buffer, thermodynamic from solid, 45 min, phosphate buffer pH 6.8, 30±0.5° C., read-out: Solubility over time, Concentration
  solubility at 45 min: 0.0149 mg/mL (≈ 19 µM)
[5]; phosphate buffer, 30 °C, pH 6.8, aqueous buffer, thermodynamic from solid, 50 min, phosphate buffer pH 6.8, 30±0.5° C., read-out: Solubility over time, Concentration
  solubility at 50 min: 0.0131 mg/mL (≈ 16.7 µM)
[5]; phosphate buffer, 30 °C, pH 6.8, aqueous buffer, thermodynamic from solid, 55 min, phosphate buffer pH 6.8, 30±0.5° C., read-out: Solubility over time, Concentration
  solubility at 55 min: 0.0118 mg/mL (≈ 15 µM)
[7]; female, beagle, dog, po, 100 mg/kg
  Tmax: 2 h
[7]; female, beagle, dog, po, 100 mg/kg, read-out: AUC0-24 h, mean (±standard error)
  AUC(0-t): 2.85 ± 1.49 µg·h/mL
[7]; female, beagle, dog, po, 100 mg/kg, read-out: Cmax, mean (±standard error)
  Cmax: 1.04 ± 0.588 µg/mL
[7]; human (calculated), oral, 2.9 mg/kg, calculated from dog values (100 mg/kg, HED 54.4 mg/kg), mean ± standard error, read-out: AUC0-24 h, values calculated in humans proportionally reduced to the dosage 2.9 mg/kg
  AUC(0-t): 0.143 ± 0.0801 µg·h/mL
[7]; human (calculated), oral, 2.9 mg/kg, calculated from dog values (100 mg/kg, HED 54.4 mg/kg), mean ± standard error, read-out: Cmax, values calculated in humans proportionally reduced to the dosage 2.9 mg/kg
  Cmax: 0.0561 ± 0.0316 µg/mL

## CO[C@H]1/C=C/O[C@@]2(C)Oc3c(C)c(O)c4c(O)c(c5c(nc6cc(C)ccn65)c4c3C2=O)NC(=O)/C(C)=C\C=C\[C@H](C)[C@H](O)[C@@H](C)[C@@H](O)[C@@H](C)[C@H](OC(C)=O)[C@@H]1C [rifaximin-α, rifaximin]
[1]; aqueous buffer, pH 4 buffer solution
  solubility: 0.00412 mg/mL (≈ 5.24 µM)
[1]; aqueous buffer, pH 7 buffer solution
  solubility: 0.00322 mg/mL (≈ 4.1 µM)
[1]; aqueous buffer, pH 10 buffer solution
  solubility: 0.299 mg/mL (≈ 380 µM)
[1]; Purified water, saturated solutions of rifaximin-α
  solubility: 0.00363 mg/mL (≈ 4.62 µM)
